# Where two headings read alike, the source gives them in different places.
# Experiments:
# [1] = system: AGS, SK-MES-1 and J82 human cancer cell lines; assay: MTT cytotoxicity, 72 h, panel summary (mean/range/selective index) over AGS, SK-MES-1, J82 vs MRC-5; type: cell-based; details: for IC50: Homo sapiens; for IC50 / MSI: Mean Selective Index = IC50 values for fibroblasts/IC50 values tumor cells: SK-MES-1, J82; for MSI: Mean Selective Index = IC50 values for fibroblasts/IC50 values tumor cells: MRC-5 vs AGS
# Protocol: (§1) The series of isoquinolinequinone amino ester conjugates (Table 1) and the bromine derivatives (Table 2) were evaluated for their in vitro cytotoxic activities against normal human lung fibroblast (MRC-5) and three human cancer cells lines: human gastric adenocarcinoma (AGS), human lung cancer (SK-MES-1), and human bladder carcinoma (J82), in 72 h drug exposure assays. The cytotoxic activities of the new compounds were measured using conventional microculture tetrazolium reduction assays. The cytotoxic activities of each of the quinones are expressed in terms of IC50.
# (§2) Cytotoxicity assay (Table 3 and Table 4). […] MRC-5, SK-MES-1, and J82 cells were grown in Eagle’s minimal essential medium (EMEM) containing 2 mM L-glutamine, 1 mM sodium pyruvate and 1.5 g/L sodium hydrogen carbonate. AGS cells were grown in Ham F-12 supplemented with 2 mM L-glutamine and 1.5 g/L sodium hydrogen carbonate. Finally, HL-60 cells were grown in RPMI medium. […] For the cytotoxicity experiments, cells were seeded into 96-well plates at a density of 50,000 cells/mL. After reaching confluence, cells were incubated for three days with compounds at varied concentrations ranging from 0 up to 100 μM while untreated cells (medium containing 1% DMSO) were used as controls. Cytotoxicity was assessed using the MTT (3-(4,5-dimethylthiazol-2-yl)-2,5-diphenyltetrazolium bromide) reduction assay. MTT was used at 1 mg/mL and the blue formazan crystals, formed during MTT reduction, were dissolved adding 100 μL of ethanol (acidified with HCl). The absorbance was measured at 550 nm using a Universal Microplate Reader (ELX 800, Bio-Tek Instruments Inc., Winooski, VT, USA). Values were the means of six replicates for each concentration and transformed to percentage of controls. The IC50 value was graphically obtained from the dose–response curves by adjusting them to a sigmoidal model (a + (b − a)/1 + 10(x − c)), where c = log IC50.
# [2] = system: AGS human gastric adenocarcinoma cells; assay: MTT cytotoxicity assay, 72 h, gastric adenocarcinoma cells; type: cell-based; details: 72 h exposure, six determinations, read-out: IC50 ± SEM AGS
# Protocol: as §1, §2
# [3] = system: SK-MES-1 human lung cancer cells; assay: MTT cytotoxicity assay, 72 h, lung cancer cells; type: cell-based; details: 72 h exposure, six determinations, read-out: IC50 ± SEM SK-MES-1
# Protocol: as §1, §2
# [4] = system: J82 human bladder carcinoma cells; assay: MTT cytotoxicity assay, 72 h, bladder carcinoma cells; type: cell-based; details: 72 h exposure, six determinations, read-out: IC50 ± SEM J82
# Protocol: as §1, §2
# [5] = system: MRC-5 normal human lung fibroblasts; assay: MTT cytotoxicity assay, 72 h, normal human lung fibroblasts; type: cell-based; details: for IC50: MRC5, normal human lung fibroblasts, MTT, 72 h exposure, six determinations, read-out: IC50 ± SEM MRC-5
# Protocol: as §1, §2
# [6] = system: T24, DU-145 and MCF-7 human cancer cell lines; assay: MTT cytotoxicity, 48 h, panel summary (range/selective index) over T24, DU-145, MCF-7 vs AG 1523; type: cell-based
# Protocol: (§3) Cytotoxicity assay (Table 5). […] The cytotoxic effect of compounds on cell lines was assessed using the MTT assay as reported previously. Briefly, 10,000 cells/well were plated for 24 h in 96-well plates and, after reaching confluence, the cells were incubated for 48 h with DMSO or in the presence of compounds. Cells were washed twice with warm phosphate-buffered saline (PBS) and further incubated for 2 h with MTT (0.5 mg/mL). The blue formazan crystals were then solubilized by adding 100 μL DMSO/well and optical density of colored solutions was read at 550 nm. Results are expressed as % of MTT reduction compared to untreated control conditions. The calculation of IC50 values was performed by using GraphPad Prism software (San Diego, CA, USA).
# [7] = system: MCF-7 (breast) human cancer cells; assay: MTT cytotoxicity assay, 48 h, breast cancer cells; type: cell-based; details: MCF7, three experiments, read-out: IC50 ± SEM MCF-7
# Protocol: as §3
# [8] = system: AG 1523 normal human fibroblasts; assay: MTT cytotoxicity assay, 48 h, normal human fibroblasts; type: cell-based; details: AG1523, healthy non-tumor fibroblasts, three experiments, read-out: IC50 ± SEM AG 1523
# Protocol: as §3
# [9] = system: DU-145 (prostate) human cancer cells; assay: MTT cytotoxicity assay, 48 h, prostate cancer cells; type: cell-based; details: three experiments, read-out: IC50 ± SEM DU-145
# Protocol: as §3
# [10] = system: T24 (bladder) human cancer cells; assay: MTT cytotoxicity assay, 48 h, bladder cancer cells; type: cell-based; details: three experiments, read-out: IC50 ± SEM T24
# Protocol: as §3
# [11] = SK-MES-1, mean over AGS, read-out: mean IC50 on cancer cells
# [12] = SK-MES-1, 72 h, range over AGS, 72 h MTT, read-out: IC50 values range over the cancer cell lines
Structure (SMILES),"IC50 [1, 11] [nM]",IC50 [2] [nM],IC50 [3] [nM],IC50 [4] [nM],IC50 [5] [nM],MSI: Mean Selective Index = IC50 values for fibroblasts/IC50 values tumor cells [1],"IC50 [1, 12] [nM]",melting point [°C],MSI on lung and bladder cancer cells ([1]; MRC-5 vs SK-MES-1 and J82 only),"SI ([6]; AG 1523 fibroblasts vs T24, DU-145, MCF-7)","IC50 ([6]; Homo sapiens, range over T24, DU-145, MCF-7, 48 h MTT, read-out: IC50 range in cancer cells) [nM]",IC50 [7] [nM],IC50 [8] [nM],IC50 [9] [nM],SI (normal fibroblasts) ([5]; as printed for normal fibroblasts),IC50 [10] [nM]
"COC(=O)c1c(C)ncc2c1C(=O)C=C(N[C@@H](C)C(=O)OC)C2=O [Compound 2a, Methyl 6- and 7-(1-methoxy-1-oxopropan-2-ylamino)-3-methyl-5,8-dioxo-5,8-dihydroisoquinoline-4-carboxylate]",< 4000,2250 ± 150,2650 ± 190,6250 ± 440,9040 ± 690,,,,,,,,,,,
"COC(=O)c1c(C)ncc2c1C(=O)C=C(N[C@H](C(=O)OC)C(C)C)C2=O [Compound 3a, Methyl 6- and 7-(1-methoxy-3-methyl-1-oxobutan-2-ylamino)-3-methyl-5,8-dioxo-5,8-dihydro-isoquinoline-4-carboxylate]",,1940 ± 80,4620 ± 280,7490 ± 440,4940 ± 250,1.10,,,,,,,,,,
COC(=O)c1c(C)ncc2c1C(=O)C=C(N[C@@H](CC(C)C)C(=O)OC)C2=O [Compound 4a],,2970 ± 150,4560 ± 310,7650 ± 510,5700 ± 290,1.13,,,,,,,,,,
"COC(=O)c1c(C)ncc2c1C(=O)C(N[C@@H](CC(C)C)C(=O)OC)=CC2=O [Compound 4b, Methyl 6- and 7-(1-methoxy-4-methyl-1-oxopentan-2-ylamino)-3-methyl-5,8-dioxo-5,8-dihydroisoquinoline-4-carboxylate]",,1590 ± 70,2220 ± 120,2350 ± 90,1770 ± 140,0.86,580 to 3180,58.5 to 60.5,,,,,,,,
COC(=O)c1c(C)ncc2c1C(=O)C=C(N[C@@H](CCSC)C(=O)OC)C2=O [Compound 5a],,2540 ± 210,2930 ± 110,6000 ± 320,5220 ± 310,1.42,,,,,,,,,,
"COC(=O)c1c(C)ncc2c1C(=O)C=C(N[C@@H](Cc1ccccc1)C(=O)OC)C2=O [Compound 6a, Methyl 6- and 7-(1-methoxy-1-oxo-3-phenylpropan-2-ylamino)-3-methyl-5,8-dioxo-5,8-dihydroisoquinoline-4-carboxylate]",< 4000,1850 ± 130,2500 ± 150,4680 ± 230,6730 ± 340,,,,,,,,,,,
COC(=O)c1c(C)ncc2c1C(=O)C(N[C@@H](Cc1ccc(O)cc1)C(=O)OC)=CC2=O [Compound 7b],,1530 ± 60,2570 ± 120,7110 ± 550,3740 ± 260,1.00,,76.5 to 78.5,,,,,,,,
"COC(=O)c1c(C)ncc2c1C(=O)C=C(N[C@@H](Cc1c[nH]c3ccccc13)C(=O)OC)C2=O [Compound 8a, Methyl 6- and 7-(3-(1H-indol-3-yl)-1-methoxy-1-oxopropan-2-ylamino)-3-methyl-5,8-dioxo-5,8-dihydroisoquinoline-4-carboxylate]",,2540 ± 180,3630 ± 180,7560 ± 520,6620 ± 460,1.45,,,,,,,,,,
"COC(=O)c1c(C)ncc2c1C(=O)C(N[C@H](Cc1ccccc1)C(=O)OC)=CC2=O [Compound 10b, Methyl 6- and 7-(1-methoxy-1-oxo-3-phenylpropan-2-ylamino)-3-methyl-5,8-dioxo-5,8-dihydroisoquinoline-4-carboxylate]",,1980 ± 110,1200 ± 50,3030 ± 170,1780 ± 120,0.82,580 to 3180,71.5 to 73,,,,,,,,
"COC(=O)c1c(C)ncc2c1C(=O)C(Br)=C(NC(C)C(=O)OC)C2=O (stereo not drawn) [Compound 12, Methyl 6-bromo-7-(1-methoxy-1-oxopropan-2-ylamino)-3-methyl-5,8-dioxo-5,8-dihydroisoquinoline-4-carboxylate]",,2070 ± 110,1960 ± 110,3760 ± 260,2860 ± 170,1.10,,120.5 to 122,,,,,,,,
COC(=O)c1c(C)ncc2c1C(=O)C(Br)=C(NC(C(=O)OC)C(C)C)C2=O (stereo not drawn) [Compound 13a],,1920 ± 130,2280 ± 90,4010 ± 190,2980 ± 210,1.15,,105.2 to 107,,,,,,,,
COC(=O)c1c(C)ncc2c1C(=O)C(NC(C(=O)OC)C(C)C)=C(Br)C2=O (stereo not drawn) [Compound 13b],,2700 ± 140,3900 ± 310,8760 ± 610,2110 ± 110,0.41,,105 to 106.6,,,,,,,,
COC(=O)c1c(C)ncc2c1C(=O)C(Br)=C(NC(CC(C)C)C(=O)OC)C2=O (stereo not drawn) [Compound 14],,> 100000,920 ± 40,2210 ± 170,> 100000,,,104.3 to 106.2,> 45,2.62,500 to 670,500 ± 50,1570 ± 200,640 ± 60,> 100,670 ± 60
COC(=O)c1c(C)ncc2c1C(=O)C(Br)=C(NC(Cc1ccccc1)C(=O)OC)C2=O (stereo not drawn) [Compound 15],,2080 ± 130,2130 ± 120,4610 ± 360,4480 ± 270,1.52,,125.2 to 127.5,,,,,,,,

# From paper PMC6274474, “Synthesis and Cytotoxic Activity on Human Cancer Cells of Novel Isoquinolinequinone–Amino Acid Derivatives” (Molecules, 2016)
